According to patent US20260042769A1, “TRIARYL AGONISTS OF ALPHA-2 ADRENERGIC RECEPTORS” (ALCEPTOR THERAPEUTICS, INC., priority 2023, published 2026):

Target: T1, human ADRA2B receptor (Homo sapiens, UniProt P18089)
T1 construct: expressed in transfected cells
T1 sequence (P18089 1-450): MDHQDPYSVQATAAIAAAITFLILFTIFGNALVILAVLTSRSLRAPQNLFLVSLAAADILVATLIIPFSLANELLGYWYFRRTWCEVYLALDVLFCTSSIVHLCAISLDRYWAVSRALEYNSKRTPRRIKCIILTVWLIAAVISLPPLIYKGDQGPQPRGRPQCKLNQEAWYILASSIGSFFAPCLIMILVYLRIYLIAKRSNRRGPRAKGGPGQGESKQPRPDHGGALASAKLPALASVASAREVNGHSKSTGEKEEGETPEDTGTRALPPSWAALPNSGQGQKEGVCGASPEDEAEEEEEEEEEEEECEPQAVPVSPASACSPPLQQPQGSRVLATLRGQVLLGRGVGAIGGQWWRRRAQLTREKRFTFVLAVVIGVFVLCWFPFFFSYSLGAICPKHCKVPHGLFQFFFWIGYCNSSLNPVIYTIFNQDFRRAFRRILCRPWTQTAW
Test: GTPγS agonist assay, ADRA2B receptor
Type: biochemical
Conditions: read-out: GTPase - Human Alpha2B EC50
Method: GTP ? S Agonist Assays (ADRA2A, ADRA2B, and ADRA2C Receptors)
Membranes were prepared for GTP ? S binding assays from CHO-K1 cells stably expressing human ADRA2A, ADRA2B, or ADRA2C receptor. Briefly, cells were grown in 5-layer cell culture flasks. Cells were washed with 50 mL of PBS and then dissociated with 0.05% trypsin. Dissociated cells were then collected by centrifugation at 650×g for 8 min at 4° C. Pellets were washed again in PBS by centrifugation and resuspended in 30 mL of 20 mM HEPES, 10 mM EDTA, pH 7.4. After sitting on ice for 30 min, membranes were collected by centrifugation at 50000×g for 15 min at 4° C., resuspended in 30 mL of 20 mM HEPES, 0.1 mM EDTA, pH 7.4 and collected again by centrifugation. Pellets were then washed twice by centrifugation in 30 mL of 20 mM HEPES, pH 7.4, and stored at −80° C. until the day of the assay. On the day of the assay, pellets were thawed on ice and resuspended in 1 mL of 20 mM HEPES, pH 7.4, 10 mM MgCl2, 100 mM NaCl using dounce homogenization. Membrane protein concentration was determined by BCA protein assay (Promega, Madison, WI) according to Promega guidelines.
On the day of the assay, serial dilutions of test compounds were brought up in assay buffer (20 mM HEPES, 10 mM MgCl2, 200 mM NaCl) at 10× final assay concentration. 50 μL/well of membrane homogenates (containing 5 μg of membrane protein for ADRA2A, ADRA2B, or 7.5 μg for ADRA2C) were prepared in assay buffer supplemented with GDP at 2× final assay concentration (5 μM GDP) and dispensed into 96 well polypropylene, U-bottom Greiner plates. Then, 10 μL of compounds were added to assay plates and incubated for 10 min at room temperature. […] The binding reaction was incubated for 1 h at 37° C. Membranes in assay reactions were then transferred to GF/C filter plates (UniFilter, Perkin Elmer) and washed three times using a FilterMate Harvester (Perkin Elmer) with cold assay buffer containing no GDP. Filter plates were then dried at 40° C. overnight followed by the addition of 30 μL/well of Beta Plate Scintillation liquid. Plates were top and bottom sealed before being read on TopCount scintillation counter (Perkin Elmer, Waltham, MA).

Row | SMILES | EC50 [nM]
1 | COc1cccc(C[C@@H](c2c[nH]cn2)c2cccc(C)c2F)n1 (single isomer, unassigned) [Compound 6] | 50 to 500
2 | COc1cccc(C[C@@H](c2c[nH]cn2)c2cccc(C)c2C)n1 [Compound 4, 2-[(2R)-2-(2,3-dimethylphenyl)-2-(1H-imidazol-4-yl)ethyl]-6-methoxypyridine] | 50 to 500
3 | COc1cccc(C[C@@H](c2c[nH]cn2)c2cccc(Cl)c2OC)n1 [Compound 8, 2-[(2R)-2-(3-chloro-2-methoxyphenyl)-2-(1H-imidazol-4-yl)ethyl]-6-methoxypyridine] | > 500
4 | COc1cccc(C[C@@H](c2cnc[nH]2)c2cccc(C)c2OC)n1 [Compound 10, 2-[(2R)-2-(1H-imidazol-4-yl)-2-(2-methoxy-3-methylphenyl)ethyl]-6-methoxypyridine] | > 500
5 | COc1cccc(C[C@@H](c2cnc[nH]2)c2cccc3c2COC3)n1 [Compound 12, 2-[(2R)-2-(1,3-dihydro-2-benzofuran-4-yl)-2-(1H-imidazol-4-yl)ethyl]-6-methoxypyridine] | > 500
6 | COc1cccc(CC(c2c[nH]cn2)c2ccnc(C)c2C)n1 (stereo not drawn) [Compound 13, 4-[1-(1H-imidazol-4-yl)-2-(6-methoxypyridin-2-yl)ethyl]-2,3-dimethylpyridine] | > 500
7 | COc1cccc(C[C@H](c2c[nH]cn2)c2cccc(Cl)c2C)n1 [Compound 14, 2-[(2S)-2-(3-chloro-2-methylphenyl)-2-(1H-imidazol-4-yl)ethyl]-6-methoxypyridine] | 50 to 500
8 | COc1cccc(C[C@@H](c2cnc[nH]2)c2cccc3c2OCC3)n1 [Compound 17, 2-[(2R)-2-(2,3-dihydro-1-benzofuran-7-yl)-2-(1H-imidazol-4-yl)ethyl]-6-methoxypyridine] | 50 to 500
9 | COc1cccc(C[C@H](c2c[nH]cn2)c2cccc3c2CCO3)n1 [Compound 18, 2-[(2S)-2-(2,3-dihydro-1-benzofuran-4-yl)-2-(1H-imidazol-4-yl)ethyl]-6-methoxypyridine] | > 500
10 | COc1cccc(C[C@@H](c2cnc[nH]2)c2cccc3c2CCO3)n1 [Compound 19, 2-[(2R)-2-(2,3-dihydro-1-benzofuran-4-yl)-2-(1H-imidazol-4-yl)ethyl]-6-methoxypyridine] | 10 to 50
11 | COc1cccc(C[C@@H](c2cccc(Cl)c2)c2cnc[nH]2)n1 [Compound 21, 2-[(2S)-2-(3-chlorophenyl)-2-(1H-imidazol-4-yl)ethyl]-6-methoxypyridine] | 10 to 50
12 | COc1cccc(C[C@H](c2cccc(Cl)c2)c2cnc[nH]2)n1 [Compound 22, 2-[(2R)-2-(3-chlorophenyl)-2-(1H-imidazol-4-yl)ethyl]-6-methoxypyridine] | > 500
13 | COc1cccc(C[C@H](c2cccc(C)c2)c2cnc[nH]2)n1 [Compound 24, 2-[(2R)-2-(1H-imidazol-4-yl)-2-(3-methylphenyl)ethyl]-6-methoxypyridine] | > 500
14 | COc1cccc(C(Cc2cccc(OC)n2)c2cnc[nH]2)c1 (stereo not drawn) [Compound 25, 2-[2-(1H-imidazol-4-yl)-2-(3-methoxyphenyl)ethyl]-6-methoxypyridine] | 50 to 500
15 | COc1cccc(C[C@H](c2cnc[nH]2)c2cccc(OC)c2C)n1 [Compound 26, 2-[(2S)-2-(1H-imidazol-4-yl)-2-(3-methoxy-2-methylphenyl)ethyl]-6-methoxypyridine] | 50 to 500
16 | FC(F)(F)Oc1ccccc1[C@H](Cc1ccccn1)c1cnc[nH]1 [Compound 29, 2-[(2S)-2-(1H-imidazol-4-yl)-2-[2-(trifluoromethoxy)phenyl]ethyl] pyridine] | > 500
17 | FC(F)(F)Oc1ccccc1[C@@H](Cc1ccccn1)c1cnc[nH]1 [Compound 30, 2-[(2R)-2-(1H-imidazol-4-yl)-2-[2-(trifluoromethoxy)phenyl]ethyl] pyridine] | > 500
18 | COc1ccccc1[C@H](Cc1ccccn1)c1cnc[nH]1 [Compound 31, 2-[(2S)-2-(1H-imidazol-4-yl)-2-(2-methoxyphenyl)ethyl]pyridine] | > 500
19 | COc1ccccc1[C@@H](Cc1ccccn1)c1cnc[nH]1 [Compound 32, 2-[(2R)-2-(1H-imidazol-4-yl)-2-(2-methoxyphenyl)ethyl]pyridine] | > 500
20 | COc1c(C)cccc1[C@H](Cc1ccccn1)c1cnc[nH]1 [Compound 33, 2-[(2S)-2-(1H-imidazol-4-yl)-2-(2-methoxy-3-methylphenyl)ethyl]pyridine] | > 500
21 | COc1c(C)cccc1[C@@H](Cc1ccccn1)c1cnc[nH]1 [Compound 34, 2-[(2R)-2-(1H-imidazol-4-yl)-2-(2-methoxy-3-methylphenyl)ethyl]pyridine] | > 500
22 | FC(F)(F)Oc1cccc([C@H](Cc2ccccn2)c2cnc[nH]2)c1 [Compound 35, 2-[(2S)-2-(1H-imidazol-4-yl)-2-[3-(trifluoromethoxy)phenyl]ethyl] pyridine] | > 500
23 | FC(F)(F)Oc1cccc([C@@H](Cc2ccccn2)c2cnc[nH]2)c1 [Compound 36, 2-[(2R)-2-(1H-imidazol-4-yl)-2-[3-(trifluoromethoxy)phenyl]ethyl] pyridine] | 10 to 50
24 | FC(F)Oc1cccc([C@H](Cc2ccccn2)c2cnc[nH]2)c1 [Compound 37] | 10 to 50

Results, then the molecule that gave them:

Row | EC50 [nM] | SMILES
25 | < 10 | COc1cccc(C[C@H](c2c[nH]cn2)c2cccc(C)c2F)n1 (single isomer, unassigned) [Compound 5]
26 | 10 to 50 | c1cnnc(C[C@@H](c2c[nH]cn2)c2cccc3c2OCC3)c1 (single isomer, unassigned) [Compound 362]
27 | < 10 | COc1cccc(C[C@H](c2c[nH]cn2)c2cccc(C)c2C)n1 [Compound 3, 2-[(2S)-2-(2,3-dimethylphenyl)-2-(1H-imidazol-4-yl)ethyl]-6-methoxypyridine]
28 | 10 to 50 | COc1cccc(C[C@H](c2c[nH]cn2)c2cccc(Cl)c2OC)n1 [Compound 7, 2-[(2S)-2-(3-chloro-2-methoxyphenyl)-2-(1H-imidazol-4-yl)ethyl]-6-methoxypyridine]
29 | < 10 | COc1cccc(C[C@H](c2cnc[nH]2)c2cccc(C)c2OC)n1 [Compound 9, 2-[(2S)-2-(1H-imidazol-4-yl)-2-(2-methoxy-3-methylphenyl)ethyl]-6-methoxypyridine]
30 | < 10 | COc1cccc(C[C@H](c2cnc[nH]2)c2cccc3c2COC3)n1 [Compound 11, 2-[(2S)-2-(1,3-dihydro-2-benzofuran-4-yl)-2-(1H-imidazol-4-yl)ethyl]-6-methoxypyridine]
31 | < 10 | COc1cccc(C[C@@H](c2cnc[nH]2)c2cccc(Cl)c2C)n1 [Compound 15, 2-[(2R)-2-(3-chloro-2-methylphenyl)-2-(1H-imidazol-4-yl)ethyl]-6-methoxypyridine]
32 | < 10 | COc1cccc(C[C@H](c2c[nH]cn2)c2cccc3c2OCC3)n1 [Compound 16, 2-[(2S)-2-(2,3-dihydro-1-benzofuran-7-yl)-2-(1H-imidazol-4-yl)ethyl]-6-methoxypyridine]
33 | < 10 | COc1cccc(CC(c2cnc[nH]2)c2cccc(OC)c2Cl)n1 (stereo not drawn) [Compound 20, 2-[2-(2-chloro-3-methoxyphenyl)-2-(1H-imidazol-4-yl)ethyl]-6-methoxypyridine]
34 | < 10 | COc1cccc(C[C@@H](c2cccc(C)c2)c2cnc[nH]2)n1 [Compound 23, 2-[(2S)-2-(1H-imidazol-4-yl)-2-(3-methylphenyl)ethyl]-6-methoxypyridine]
35 | < 10 | COc1cccc(C[C@@H](c2cnc[nH]2)c2cccc(OC)c2C)n1 [Compound 27, 2-[(2R)-2-(1H-imidazol-4-yl)-2-(3-methoxy-2-methylphenyl)ethyl]-6-methoxypyridine]
36 | < 10 | COc1cccc(CC(c2c[nH]cn2)c2cccc(C)c2Cl)n1 (stereo not drawn) [Compound 28, 2-[2-(2-chloro-3-methylphenyl)-2-(1H-imidazol-4-yl)ethyl]-6-methoxypyridine]
